Assay results as given in ChEMBL document CHEMBL5303304, “EUbOPEN Chemogenomics Library - IncuCyte” (2023).

Tests used:
Assay type in all cases: toxicity, cell-based
[1] = test system: HEK-293T; assay: Incucyte cell viability with HEK293T; details: human, 10 µM, compound concentration 10 uM
[2] = test system: Fibroblast; assay: Incucyte cell viability with human fibroblast; details: 10 µM, compound concentration 10 uM
[3] = test system: U2OS; assay: Incucyte cell viability with U2OS; details: human, 10 µM, compound concentration 10 uM
Note: unitless GR value; below 1 slowed growth and below 0 cell loss.

Structure (SMILES) | Growth Rate ([1]; 0 h, replicate number 1) | Growth Rate ([1]; 0 h, replicate number 2) | Growth Rate ([1]; 18 h, replicate number 2) | Growth Rate ([1]; 24 h, replicate number 1) | Growth Rate ([2]; 0 h, replicate number 2) | Growth Rate ([2]; 12 h, replicate number 1) | Growth Rate ([2]; 18 h, replicate number 1) | Growth Rate ([2]; 24 h, replicate number 1) | Growth Rate ([3]; 6 h, replicate number 2) | Growth Rate ([3]; 12 h, replicate number 2) | Growth Rate ([3]; 18 h, replicate number 2) | Growth Rate ([3]; 24 h, replicate number 1) | Growth Rate ([3]; 24 h, replicate number 2) | Growth Rate ([3]; 12 h, replicate number 1) | Growth Rate ([3]; 18 h, replicate number 1) | Growth Rate ([1]; 24 h, replicate number 2) | Growth Rate ([1]; 6 h, replicate number 1) | Growth Rate ([1]; 6 h, replicate number 2) | Growth Rate ([1]; 12 h, replicate number 2) | Growth Rate ([2]; 6 h, replicate number 2) | further results
O=C(N[C@@H]1C2CCN(CC2)[C@H]1Cc1cccnc1)c1cc2ccccc2o1 [BRADANICLINE] | 0.69 | 0.79 | 0.96 | 0.96 | -0.99 | -0.73 | 0.35 | 0.82 | 0.66 | 0.78 | 0.99 | 0.93 | 0.96 | – | – | – | – | – | – | – | –
Nc1c(CC(=O)O)cccc1C(=O)c1ccc(Br)cc1 [BROMFENAC] | 0.43 | -0.53 | – | 0.98 | -0.66 | – | – | – | – | 0.95 | 0.92 | 0.74 | 0.95 | 0.79 | 0.86 | – | – | – | – | – | Growth Rate ([3]; 0 h, replicate number 1): 0.27; Growth Rate ([3]; 6 h, replicate number 1): 0.2
Cn1ncc(-c2nc(N[C@H]3CC[C@H](N)CC3)ncc2Cl)c1CC1CC1 [BTX-A51] | -0.79 | – | – | 0.57 | -0.85 | – | – | – | – | – | 0.89 | – | 0.74 | – | – | 0.67 | – | – | – | – | Growth Rate ([2]; 0 h, replicate number 1): -0.32
C=C1/C(=C\C=C2/CCC[C@]3(C)[C@@H]([C@H](C)CCCC(C)(C)O)CC[C@@H]23)C[C@@H](O)C[C@@H]1O [CALCITRIOL] | – | -0.91 | 0.67 | 0.53 | – | 0.49 | 0.64 | 0.96 | 0.45 | 0.63 | 0.67 | 0.91 | 0.67 | -0.16 | 0.83 | 0.55 | 0.8 | 0.4 | 0.7 | 0.1 | Growth Rate ([1]; 12 h, replicate number 1): 0.61; Growth Rate ([1]; 18 h, replicate number 1): 0.44; Growth Rate ([2]; 6 h, replicate number 1): 0.62; Growth Rate ([2]; 12 h, replicate number 2): 0.64; Growth Rate ([3]; 0 h, replicate number 1): -0.07; Growth Rate ([3]; 0 h, replicate number 2): 0.74; Growth Rate ([3]; 6 h, replicate number 1): 0.27
Oc1cc2c(cc1O)CN(C(=S)NCCc1ccc(Cl)cc1)CCC2 [CAPSAZEPINE] | – | – | 0.51 | – | -0.78 | – | -0.47 | – | 0.57 | 0.84 | 0.75 | 0.77 | 0.93 | 0.86 | 0.88 | 0.55 | -0.22 | -0.37 | 0.11 | -0.98 | Growth Rate ([1]; 12 h, replicate number 1): 0.04; Growth Rate ([1]; 18 h, replicate number 1): 0.54; Growth Rate ([2]; 12 h, replicate number 2): -0.04; Growth Rate ([2]; 18 h, replicate number 2): 0.44; Growth Rate ([2]; 24 h, replicate number 2): 0.57; Growth Rate ([3]; 0 h, replicate number 2): -0.38
COC[C@H](O)Cn1c(=O)cnn(-c2ccc(Cl)c(C(=O)NCC3(O)CCCCCC3)c2)c1=O [CE-224535] | – | 0.38 | – | – | -1 | -1 | -0.48 | – | – | – | – | – | – | – | – | – | 0.55 | – | – | – | Growth Rate ([2]; 0 h, replicate number 1): -0.26; Growth Rate ([3]; 0 h, replicate number 1): -0.6
Cc1cc(Nc2ncc(Cl)c(Nc3ccccc3S(=O)(=O)C(C)C)n2)c(OC(C)C)cc1C1CCNCC1 [CERITINIB] | – | – | -0.35 | -0.33 | – | -1 | -0.92 | -0.63 | -0.96 | -0.82 | -0.68 | -0.57 | -0.61 | -0.79 | -0.64 | -0.26 | -0.91 | -0.87 | -0.49 | -1 | Growth Rate ([1]; 12 h, replicate number 1): -0.6; Growth Rate ([1]; 18 h, replicate number 1): -0.4; Growth Rate ([2]; 0 h, replicate number 1): -0.31; Growth Rate ([2]; 12 h, replicate number 2): -0.99; Growth Rate ([2]; 18 h, replicate number 2): -0.93; Growth Rate ([2]; 24 h, replicate number 2): -0.84; Growth Rate ([3]; 0 h, replicate number 1): 0.45; Growth Rate ([3]; 6 h, replicate number 1): -0.98
CN(C)CCCN1c2ccccc2Sc2ccc(Cl)cc21.Cl [CHLORPROMAZINE HYDROCHLORIDE] | – | -0.89 | 0.37 | 0.15 | 0.33 | -0.38 | -0.35 | -0.22 | -0.06 | 0.12 | 0.33 | 0.91 | 0.39 | 0.42 | 0.77 | 0.19 | 0.64 | 0.48 | 0.52 | – | Growth Rate ([1]; 12 h, replicate number 1): 0.66; Growth Rate ([1]; 18 h, replicate number 1): 0.18; Growth Rate ([2]; 6 h, replicate number 1): -0.57; Growth Rate ([3]; 0 h, replicate number 1): -0.42; Growth Rate ([3]; 0 h, replicate number 2): -0.21
C[C@H](CCC(=O)O)[C@H]1CC[C@H]2[C@@H]3[C@H](O)C[C@@H]4C[C@H](O)CC[C@]4(C)[C@H]3C[C@H](O)[C@]12C [CHOLIC ACID] | 0.14 | 0.01 | – | – | – | 0.82 | 0.38 | 0.81 | 0.92 | 0.92 | – | – | 0.97 | – | 0.98 | 1 | – | – | – | 0.33 | Growth Rate ([2]; 0 h, replicate number 1): 0.6; Growth Rate ([2]; 6 h, replicate number 1): -0.41; Growth Rate ([2]; 12 h, replicate number 2): 0.56; Growth Rate ([2]; 18 h, replicate number 2): 0.65; Growth Rate ([2]; 24 h, replicate number 2): 0.97; Growth Rate ([3]; 0 h, replicate number 2): 0.9
Cc1nnc2ccc(-c3cccc(C(F)(F)F)c3)nn12 [CI-218872] | 0.97 | 0.45 | 0.95 | – | – | -1 | – | – | 0.83 | – | 0.97 | – | – | 0.88 | 0.84 | 0.99 | – | – | 0.87 | -1 | Growth Rate ([2]; 6 h, replicate number 1): 0.38; Growth Rate ([2]; 12 h, replicate number 2): 0.98; Growth Rate ([3]; 6 h, replicate number 1): 0.76
CC1(C)C[C@@H]1C(=O)N/C(=C\CCCCSC[C@H](N)C(=O)O)C(=O)O [CILASTATIN] | -0.01 | 0.73 | – | – | -0.91 | – | – | – | 0.81 | 0.74 | 0.82 | 0.9 | 0.79 | 0.97 | 0.9 | – | 0.74 | 0.55 | 0.9 | 0.61 | Growth Rate ([2]; 24 h, replicate number 2): 0.83; Growth Rate ([3]; 0 h, replicate number 2): 0.88
O=C(O)c1ccnc(N2CC(O)(c3ccc(OCc4c(-c5c(Cl)cccc5Cl)noc4C4CC4)cc3Cl)C2)c1 [CILOFEXOR] | 0.8 | 0.73 | 0.85 | 0.89 | – | – | 0.87 | – | – | 1 | – | – | – | – | – | 1 | – | 0.54 | 0.68 | -0.03 | Growth Rate ([2]; 24 h, replicate number 2): 0.8
